Among the data in patent US20230080819A1, “HERBICIDE COMBINATIONS COMPRISING GLUFOSINATE AND TIAFENACIL” (BASF SE, priority 2020, published 2023) are Solo % activity values, retold here.

Each structure is given as a SMILES string.

Common to all, as to type: in vivo
Holding throughout (details): 20 DAT

Assay [1] relates to Amaranthus tuberculatus (AMATU). Nature of the assay: Greenhouse post-emergence weed control, waterhemp.
For assay [2], the system named is Amaranthus Palmeri (AMAPA). Nature of the assay: Greenhouse post-emergence weed control, Palmer Amaranth.
The subject of a further assay is Galium aparine (GALAP). As to the kind of experiment: Greenhouse post-emergence weed control, Cleavers.
Assay [3] deals with Echinochloa crus-galli (ECHCG). As to the kind of experiment: Greenhouse post-emergence weed control, barnyardgrass.

Regarding `COC(=O)CCNC(=O)C(C)Sc1cc(-n2c(=O)cc(C(F)(F)F)n(C)c2=O)c(F)cc1Cl` (stereo not shown) [Tiafenacil, tiafenacil], the Solo % activity is reported as 15% in assay [1] (Tiafenacil 1.5 g ai/ha solo, AMATU (Table 2)); 15% in assay [1] (Tiafenacil 1.5 g ai/ha solo, AMATU (Table 5)); 15% in assay [1] (Tiafenacil 1.5 g ai/ha solo, post-emergence, AMATU, 1% MSO); 0% in assay [2] (Tiafenacil 0.15 g ai/ha solo); 25% in assay [2] (Tiafenacil 1.5 g ai/ha solo); 0% with Galium aparine (GALAP) (Tiafenacil 0.5 g ai/ha solo). Further, the Solo % activity is reported as 10% in assay [3] (Tiafenacil 0.5 g ai/ha solo, ECHCG (Table 3)) and 10% in assay [3] (Tiafenacil 0.5 g ai/ha solo, ECHCG (Table 7)).
As to `CP(=O)(O)CCC(N)C(=O)O` (racemic) [Glufosinate, (2RS)-2-amino-4-[hydroxy(methyl)phosphinoyl]butyric acid], the Solo % activity was 10% in assay [1] (Glufosinate 50 g ai/ha solo, post-emergence, AMATU, 1% MSO); 10% in assay [1] (Glufosinate 100 g ai/ha solo, AMATU); 70% in assay [1] (Glufosinate 200 g ai/ha solo, AMATU); 25% in assay [2] (Glufosinate 100 g ai/ha solo); 75% in assay [2] (Glufosinate 200 g ai/ha solo); 60% with Galium aparine (GALAP) (Glufosinate 100 g ai/ha solo). Besides, the Solo % activity in assay [3] (Glufosinate 50 g ai/ha solo, ECHCG) is recorded as 10%; in assay [3] (Glufosinate 100 g ai/ha solo, ECHCG) it was 25%.
